Measured values: US20230310390A1, “INHIBITORS OF SHORT-CHAIN DEHYDROGENASE ACTIVITY FOR TREATING NEURODEGENERATION” (CASE WESTERN RESERVE UNIVERSITY, priority 2020, published 2023)
Where two headings read alike, the source gives them in different places.

How the values were obtained:
[1] = tested on: C57/B6 mice exposed to TBI; assay: Silver staining for axon degeneration after TBI; assay type: in vivo; conditions: 3 weeks after TBI, 5 mg/kg twice daily started 24 hours after injury; 5 mg/kg
Description: 8 week old C57/B6 mice were exposed to sham-injury or TBI. Twice daily treatment with 5 mg/kg (+)-SW033291, 5 mg/kg (−)-SW033291, or vehicle was started 24 hours after injury and continued throughout the duration of the experiment. Animals were sacrificed by transcardial perfusion 3 weeks after TBI or sham-injury, and fixed brains were processed for silver staining. […] Individual mouse data points are shown on the graph. Data was analyzed using two-way repeated measures ANOVA; * p<0.05, ** p<0.01. All data is mean±SEM.

[2] = cited from earlier work
neurons = conditions: in vitro, activation of the EP2 receptors; cited from earlier work

For CCCC[S+]([O-])c1sc2nc(-c3cccs3)cc(-c3ccccc3)c2c1N (single isomer, unassigned; (-)) [(−)-SW033291, reference compound], the “silver staining (axon degeneration)” value [1] was “protection was not noted”.

In the case of CCCCC[C@H](O)/C=C/[C@H]1[C@H](O)CC(=O)[C@@H]1C/C=C\CCCC(=O)O [PGE2, prostaglandin E2], the half-life ([2]; following intravenous injection) is given as “less than 1 min” and the half-life ([2]; in the circulatory system) is given as “approximately 30 sec”.

For CCCC1([C@H](O)C/C=C/[C@H]2[C@H](O)CC(=O)[C@@H]2CCCCCCC(=O)OC)CCC1 [butaprost], the “protection of neurons from amyloid peptide neurotoxicity” value (neurons) is given as “protected neurons from amyloid 0-peptide neurotoxicity in vitro”.
